{
  "source": "patent US11434225B2",
  "about": "“Salts and solid state forms of plinabulin” (PLIVA HRVATSKA D.O.O., priority 2017, dated 2022)",
  "details": "solid state form",
  "data": [
    {"smiles": "CC(C)(C)c1[nH]cnc1/C=c1\\[nH]c(=O)/c(=C/c2ccccc2)[nH]c1=O", "note": "[Plinabulin Form G]", "values": [
      {"measurement": "stability upon exposure to humidity", "setting": "upon exposure to humidity", "result": "shows stability"},
      {"measurement": "stability upon heating", "setting": "upon heating", "result": "shows stability"}
    ]}
  ]
}
